From paper PMC5583591, “The N-terminal Region of Nisin Is Important for the BceAB-Type ABC Transporter NsrFP from Streptococcus agalactiae COH1” (Frontiers in Microbiology, 2017) come the findings set out here.

Assay type in all cases: cell-based, Lactococcus lactis
One assay deals with NZ9000NsrFH202AP. The assay is described as follows: Growth inhibition (IC50), strain expressing ATP-hydrolysis-deficient NsrFH202AP. As to conditions: IC50 against NZ9000NsrFH202AP divided by IC50 against NZ9000Cm. An excerpt:
(§1) The nsrfp gene from S. agalactiae COH1 was amplified from the chromosomal DNA using two primers (NsrFP_for 5′-[…]-3′ and NsrFP_rev 5′-[…]-3) and ligated into pIL-SV (E. coli–L. lactis shuttle vector) ([Alkhatib et al., 2014b]). The point mutation NsrFH202A was introduced by a standard mutagenesis protocol using the following primers: forward: 5′-[…]-3′; reverse: 5′-[…]-3′. The resulting plasmid was verified by sequencing and transformed into the L. lactis strain NZ9000 for expression ([Holo and Nes, 1989]) and the corresponding strains were termed NZ9000NsrFP and NZ9000NsrFH202AP. An empty vector pIL-SVCm was also transformed into the NZ9000 strain and was used as a control (that excludes any possible effect of induction of the plasmid), and this strain was called NZ9000Cm. The expression of the nsrfp gene is regulated by the TCS NisR/NisK present in the NZ9000 strain genome.
Cells from the different expressing strains were grown overnight in GM17 supplemented with 5 μg/ml chloramphenicol in presence of 1 ng/ml nisin. The diluted cells (final OD584 was 0.1) were incubated with a serial dilution of nisin in a 96-well plate. The total volume in each well was 200 μl, consisting of 50 μl nisin and 150 μl GM17 containing the corresponding L. lactis strain.
The plate was incubated at 30°C. After 5 h, the optical density was measured at 584 nm via 96-well plate reader BMG. The normalized optical density was plotted against the logarithm of the nisin concentration in order to calculate the IC50 of nisin and the data was evaluated using the following equation (Eq. 1):
y=ODmin+ODmax−ODmin/1+10^(log(IC50)−x) ×p
The ODmax value describes the normalized optical density value where no nisin was added, while the ODmin value corresponds to the normalized optical density of the cells grown in the highest nisin concentrations. The y represents the resulted normalized optical density value and x represents the logarithmic of the nisin concentration added. The IC50 value is the concentration of nisin where the growth of the L. lactis strain is inhibited by 50% ([Abts et al., 2011]).
We determined the IC50 value of nisin against the NZ9000Cm sensitive strain as well as the strain NZ9000NsrFP and NZ9000NsrFH202AP. By dividing these two values the fold of resistance is obtained. […] Dividing these two values results in a fold of resistance of 16.7.

A further assay deals with NZ9000NsrFP. The assay is described as follows: Growth inhibition (IC50), strain expressing NsrFP. As to conditions: IC50 against NZ9000NsrFP divided by IC50 against NZ9000Cm.
From the text: as §1, with “genome. […]” for “genome.”
(§2) The plate was incubated at 30°C. After 5 h, the optical density was measured at 584 nm via 96-well plate reader BMG. The normalized optical density was plotted against the logarithm of the nisin concentration in order to calculate the IC50 of nisin and the data was evaluated using the following equation (Eq. 1): […]
We determined the IC50 value of nisin against the NZ9000Cm sensitive strain as well as the strain NZ9000NsrFP and NZ9000NsrFH202AP. […]

The next assay deals with NZ9000Cm. The assay is described as follows: Growth inhibition (IC50), nisin-sensitive control strain with empty vector. The following applies: product of NSR cleavage (last six amino acids cleaved off).
From the text: as §1
Cells from the different expressing strains were grown overnight in GM17 supplemented with 5 μg/ml chloramphenicol in presence of 1 ng/ml nisin. […]
as §2

Consider `C/C=C(\NC(=O)[C@H](CCCCN)NC(=O)[C@H](C)NC(=O)[C@@H]1CS[C@@H](C)[C@@H](NC(=O)[C@@H]2CSC[C@@H](NC(=O)[C@H](C)NC(=O)[C@@H](N)[C@@H](C)CC)C(=O)N[C@@H](CCCCN)C(=O)N[C@@H](Cc3ccccc3)C(=O)N[C@@H](CC(C)C)C(=O)N2)C(=O)N2CCC[C@H]2C(=O)NCC(=O)N1)C(=O)NCC(=O)N[C@@H]1CSC[C@@H]2NC(=O)[C@H](Cc3ccc(O)cc3)NC(=O)[C@@H](CS/C=C\NC2=O)NC(=O)[C@H](CC(N)=O)NC(=O)[C@H](Cc2ccccc2)NC1=O` [Gallidermin], for which the “Fold of resistance NZ9000NsrFH202AP” value in the assay with NZ9000NsrFH202AP amounted to 0.9 fold. For the same compound, the “Fold of resistance NZ9000NsrFP” value in the assay with NZ9000NsrFP is on record as 12.5 fold.

Regarding `C=C1NC(=O)[C@H]([C@@H](C)CC)NC(=O)[C@H](NC(=O)/C(=C/C)NC(=O)[C@@H](N)[C@@H](C)CC)CSC[C@@H](C(=O)N[C@H]2C(=O)N3CCC[C@H]3C(=O)NCC(=O)N[C@H](C(=O)N[C@@H](CCCCN)C(=O)N[C@H]3C(=O)NCC(=O)N[C@@H](C)C(=O)N[C@@H](CC(C)C)C(=O)N[C@@H](CCSC)C(=O)NCC(=O)N[C@H](C(=O)N[C@@H](CC(N)=O)C(=O)N[C@@H](CCSC)C(=O)N[C@@H](CCCCN)C(=O)O)CS[C@H]3C)CS[C@H]2C)NC(=O)[C@H](CC(C)C)NC1=O` [Nisin1-22], the “Fold of resistance NZ9000NsrFH202AP” value in the assay on NZ9000NsrFH202AP is given as 0.7 fold.

As to `C=C1NC(=O)[C@H]([C@@H](C)CC)NC(=O)[C@H](NC(=O)/C(=C/C)NC(=O)[C@@H](N)[C@@H](C)CC)CSC[C@@H](C(=O)N[C@H]2C(=O)N3CCC[C@H]3C(=O)NCC(=O)N[C@H](C(=O)N[C@@H](CCCCN)C(=O)N[C@H]3C(=O)NCC(=O)N[C@@H](C)C(=O)N[C@@H](CC(C)C)C(=O)N[C@@H](CCSC)C(=O)NCC(=O)N[C@H](C(=O)N[C@@H](CC(N)=O)C(=O)N[C@@H](CCSC)C(=O)N[C@@H](CCCCN)C(=O)N[C@H]4C(=O)N[C@@H](C)C(=O)N[C@H]5C(=O)N[C@@H](CS[C@H]4C)C(=O)N[C@@H](Cc4c[nH]cn4)C(=O)N[C@H](C(=O)O)CS[C@H]5C)CS[C@H]3C)CS[C@H]2C)NC(=O)[C@H](CC(C)C)NC1=O` [Nisin1-28], the “Fold of resistance NZ9000NsrFH202AP” value in the assay with NZ9000NsrFH202AP is 0.4 fold. Also, the “Fold lower activity compared with nisin” value in the assay on NZ9000Cm came out at 32 fold.

As to `C=C(NC(=O)[C@@H](NC(=O)[C@H](CCCCN)NC(=O)[C@@H](NC(=O)[C@H](CO)NC(=O)[C@@H]1CS[C@@H](C)[C@H]2NC(=O)[C@H](C)NC(=O)[C@H](NC(=O)[C@H](CCCCN)NC(=O)[C@H](Cc3ccc(O)cc3)NC(=O)[C@H](CC(N)=O)NC(=O)[C@@H]3CS[C@@H](C)[C@@H](NC(=O)[C@H](CCCCN)NC(=O)[C@@H]4CS[C@@H](C)[C@@H](NC(=O)[C@@H]5CSC[C@@H](NC(=O)/C(=C/C)NC(=O)[C@@H](N)Cc6ccccc6)C(=O)N[C@@H]([C@@H](C)CC)C(=O)NC(=C)C(=O)N[C@@H](CCSC)C(=O)N5)C(=O)N5CCC[C@H]5C(=O)NCC(=O)N4)C(=O)NCC(=O)N[C@@H](C)C(=O)N[C@@H](CC(C)C)C(=O)N[C@@H](CCSC)C(=O)N/C(=C\C)C(=O)N3)[C@H](C)SC[C@H](NC2=O)C(=O)N[C@@H](Cc2c[nH]cn2)C(=O)N1)[C@@H](C)CC)C(C)C)C(=O)N[C@@H](CCCCN)C(=O)O` [Nisin H], the “Fold of resistance NZ9000NsrFH202AP” value in the assay with NZ9000NsrFH202AP was determined as 1.1 fold. The “Fold of resistance NZ9000NsrFP” value with NZ9000NsrFP amounted to 12.3 fold.
